Test results as given in patent US20240099973A1, “EXTRACELLULAR VESICLE COMPOSITIONS” (LONZA SALES AG, priority 2019, published 2024).

Legend:
[1] = Intratumoral concentration of STING agonist in B16-F10 melanoma tumors; type: in vivo, C57BL/6 mice; details: 0.3 μg of CL656 intratumoral dose; after about 360 minutes
Description: The intratumoral concentration of STING agonist in Buffer B over time was investigated.
Briefly, B16-F10 melanoma cells were subcutaneously transplanted into C57BL/6 mice. When dermal tumors were visible, each animal received an intratumoral dose of either free STING agonist (0.3 μg of CL656) or exosome-encapsulated STING agonist (0.3 μg of CL656). Intratumoral concentration of free STING agonist and exosome-encapsulated STING agonist was measured at 5, 30, 120, 360, 1440, and 2880 minutes after injection. […] Further shown in FIG. 3D, the concentration of exosome-encapsulated STING agonist fell slowly to about 100 nM at 1440 minutes. Thereafter, the concentration of exosome-encapsulated STING agonist was steady at about 100 nM until the last measurement was taken at 2880 minutes.

IFNβ mRNA = IFNβ mRNA expression in liver after intravenous administration; type: in vivo, C57BL/6 mice; details: 20 μg intravenously; 4 hours
Description: The effect of administration of exosomes containing STING agonist CL656 on gene expression in C57BL/6 liver was investigated.
After thawing, exosomes in buffer B composition containing STING agonist CL656 was stored at 4° C. and 22° C. for 24 h or 72 h as described in Example 5. PBS, CL656 (20 μg), exosomes, or exosomes in buffer B containing STING agonist CL656 that incubated as described above (600 ng of CL656 per mouse) were administered into C57BL/6 mice intravenously. As a control, exosomes in buffer B composition containing STING agonist CL656 that were stored at −80° C. (6 ng, 60 ng, and 600 ng per mouse) were administered (considered as 0 h). After 4 hours, mice were euthanized and liver was collected. Total RNA was isolated from liver by using RNeasy Lipid Mini Kit (Qiagen) and expression level of IFNβ mRNA was determined by RT-qPCR. Relative expression was normalized against housekeeping gene RPS13. FIG. 3C provides the results from the liver study.

Structure (SMILES): Nc1ncnc2c1ncn2[C@@H]1O[C@@H]2COP(=O)(S)O[C@H]3[C@@H](F)[C@H](n4cnc5c(=O)[nH]cnc54)O[C@@H]3COP(O)(=S)O[C@H]2[C@H]1F (some centres unmarked) [CL656]
- intratumoral concentration [1]: not detectable
- IFNβ mRNA in liver (RT-qPCR, normalized against RPS13) (IFNβ mRNA): low level
